Source: patent US6949574B2 (Bristol-Myers Squibb Company, priority 2002, dated 2005)
Like-named read-outs stand apart in the source and are kept apart here.

Molecular target: T1, human FAAH (Homo sapiens, UniProt O00519)
T1 construct: expressed in transfected cells; host or cells: H4 cells (H4-FAAH, Geneticin-selected); crude membrane homogenates
T1 sequence (O00519 1-579): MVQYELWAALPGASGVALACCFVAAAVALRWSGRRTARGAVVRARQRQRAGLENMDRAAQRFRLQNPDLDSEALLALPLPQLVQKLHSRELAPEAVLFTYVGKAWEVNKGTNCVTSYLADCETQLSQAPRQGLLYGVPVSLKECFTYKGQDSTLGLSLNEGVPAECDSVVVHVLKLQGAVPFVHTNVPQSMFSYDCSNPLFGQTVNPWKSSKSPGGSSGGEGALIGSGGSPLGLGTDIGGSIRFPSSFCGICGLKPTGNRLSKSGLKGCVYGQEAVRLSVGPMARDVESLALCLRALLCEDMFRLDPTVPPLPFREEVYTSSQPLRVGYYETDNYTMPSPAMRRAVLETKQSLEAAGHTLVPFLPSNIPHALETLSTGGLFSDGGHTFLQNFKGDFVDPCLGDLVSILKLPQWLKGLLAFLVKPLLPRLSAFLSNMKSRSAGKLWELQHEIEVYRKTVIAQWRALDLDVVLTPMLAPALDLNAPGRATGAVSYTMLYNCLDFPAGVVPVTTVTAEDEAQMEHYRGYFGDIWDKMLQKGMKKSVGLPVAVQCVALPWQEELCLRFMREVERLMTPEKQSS
Assay: FAAH activity in membrane homogenates of H4-FAAH cells, [3H]-anandamide hydrolysis
Assay type: biochemical
Description: Homogenates of crude membranes were prepared from H4 cells that express transfected human FAAH (H4-FAAH cells). Briefly, cells were grown in DMEM supplemented with 10% FBS and Geneticin at a final concentration of 500 μg/ml (Gibco BRL, Rockville, Md.). Confluent cultures of H4-FAAH cells were rinsed twice with phosphate-buffered saline [138 mM NaCl, 4.1 mM KCl, 5.1 mM Na2PO4, 1.5 mM KH2PO4 (pH 7.5), 37° C.] and incubated for 5 to 10 minutes at 4° C. in lysis buffer [1 mM sodium bicarbonate]. Cells were transferred from plates to polypropylene tubes (16×100 mm), homogenized and centrifuged at 32,000×g for 30 minutes. Pellets were resuspended by homogenization in lysis buffer and centrifuged at 32,000×g for 30 minutes. Pellets were resuspended in lysis buffer (15-20 μg protein/ml) then stored at −80° C. until needed. On the day of an experiment, membranes were diluted to 2.67 μg protein/ml in 125 mM Tris-Cl, pH 9.0.
Activity of FAAH was measured using a modification of the method described by Omeir et al., 1995 (Life Sci 56:1999, 1995). Membrane homogenates (240 ng protein) were incubated at room temperature for one hour with 1.67 nM anandamide [ethanolamine 1-^3H] (available from American Radiolabeled Chemical Inc., St Louis, Mo.) and 10 μM anandamide (available from Sigma/RBI, St. Louis, Mo.) in the absence and presence of inhibitors. The reaction was stopped by the addition of 1 volume of a solution of 1:1 methanol and dichloroethane. The mixture was shaken and then centrifuged at 1000×g for 15 minutes to separate the aqueous and organic phases. An aliquot of the aqueous phase, containing [^3H]-ethanolamine was withdrawn and counted by scintillation spectroscopy. Data were expressed as the percentage of [^3H]-ethanolamine formed versus vehicle, after subtraction of the background radioactivity determined in the presence of 10 μM arachidonyl trifluoromethyl ketone (ATFMK), an inhibitor of FAAH. IC50 values were determined using a four-parameter logistic equation for dose-response curves.

[1] = H4-FAAH cell membranes, 10 μM anandamide, room temperature, one hour, read-out: IC50

Compound | IC50 [1] [nM] | IC50 [nM]
CCCCCCCOc1ccc(NC(=O)O/N=C/c2cccnc2)cc1 [Example 1, 3-Pyridinecarboxaldehyde, O-[[[4-(Heptyloxy)phenyl]amino]carbonyl]oxime] | < 10 | 
CCCCOc1ccc(CNC(=O)Oc2cccnc2)cc1 [Example 2, (4-Butoxyphenyl)methylcarbamic acid, 3-pyridinyl ester] | < 10 | 
CCCCCCCCCCCOc1ccc(NC(=O)O/N=C/c2cccnc2)cc1 [Example 3, 3-Pyridinecarboxaldehyde, O-[[[4-(undecyloxy)phenyl]amino]carbonyl]oxime] | < 10 | 
CCCCCCCCCOc1ccc(NC(=O)O/N=C/c2cccnc2)cc1 [Example 4, 3-Pyridinecarboxaldehyde, O-[[[4-(nonyloxy)phenyl]amino]carbonyl]oxime] |  | < 10
CCOc1ccc(NC(=O)ON=C(C)C)cc1 [Example 6, 2-Propanone, O-[[(4-ethoxyphenyl)amino]carbonyl]oxime] | 101 to 500 | 
CCCOc1ccc(NC(=O)ON=C(C)C)cc1 [Example 7, 2-Propanone, O-[[(4-propoxyphenyl)amino]carbonyl]oxime] | 101 to 500 | 
CCCCCOc1ccc(NC(=O)ON=C(C)C)cc1 [Example 8, 2-Propanone, O-[[(4-pentyloxyphenyl)amino]carbonyl]oxime] | 10 to 100 | 
CCOc1ccc(NC(=O)O/N=C/c2ccccc2)cc1 [Example 9, Benzaldehyde, O-[[(4-ethoxyphenyl)amino]carbonyl]oxime] | 10 to 100 | 
CCCOc1ccc(NC(=O)O/N=C/c2ccccc2)cc1 [Example 10, Benzaldehyde, O-[[(4-propoxyphenyl)amino]carbonyl]oxime] | < 10 | 
CCCCCOc1ccc(NC(=O)O/N=C/c2ccccc2)cc1 [Example 11, Benzaldehyde, O-[[(4-pentyloxyphenyl)amino]carbonyl]oxime] |  | < 10
CCOc1ccc(NC(=O)O/N=C/c2ccc(F)cc2)cc1 [Example 12, 4-Fluorobenzaldehyde, O-[[(4-ethoxyphenyl)amino]carbonyl]oxime] | 10 to 100 | 
CCCOc1ccc(NC(=O)O/N=C/c2ccc(F)cc2)cc1 [Example 13, 4-Fluorobenzaldehyde, O-[[(4-propoxyphenyl)amino]carbonyl]oxime] | 10 to 100 | 
CCCCCOc1ccc(NC(=O)O/N=C/c2ccc(F)cc2)cc1 [Example 14, 4-Fluorobenzaldehyde, O-[[(4-pentyloxyphenyl)amino]carbonyl]oxime] |  | < 10
CCOc1ccc(NC(=O)O/N=C/c2cccnc2)cc1 [Example 15, 3-Pyridinecarboxaldehyde, O-[[(4-ethoxyphenyl)amino]carbonyl]oxime] | 101 to 500 | 
CCCOc1ccc(NC(=O)O/N=C/c2cccnc2)cc1 [Example 16, 3-Pyridinecarboxaldehyde, O-[[(4-propoxyphenyl)amino]carbonyl]oxime] | 10 to 100 | 
CCCCCOc1ccc(NC(=O)O/N=C/c2cccnc2)cc1 [Example 17, 3-Pyridinecarboxaldehyde, O-[[(4-pentyloxyphenyl)amino]carbonyl]oxime] | < 10 | 
CCCCOc1ccc(NC(=O)ON=C(C)C)cc1OC [Example 18, 2-Propanone, O-[[(4-butoxy-3-methoxyphenyl)amino]carbonyl]oxime] | > 500 | 
CCCCOc1ccc(NC(=O)O/N=C/c2ccccc2)cc1OC [Example 19, Benzaldehyde, O-[[(4-butoxy-3-methoxyphenyl)amino]carbonyl]oxime] | 101 to 500 | 
CCCCOc1ccc(NC(=O)O/N=C/c2ccc(F)cc2)cc1OC [Example 20, 4-Fluorobenzaldehyde, O-[[(4-butoxy-3-methoxyphenyl)amino]carbonyl]oxime] | 101 to 500 | 
CCCCOc1ccc(NC(=O)O/N=C/c2cccnc2)cc1OC [Example 21, 3-Pyridinecarboxaldehyde, O-[[(4-butoxy-3-methoxyphenyl)amino]carbonyl]oxime] | > 500 | 
CCCCCCOc1ccc(NC(=O)ON=C(C)C)cc1 [Example 22, 2-Propanone, O-[[(4-hexyloxyphenyl)amino]carbonyl]oxime] | 10 to 100 | 
